Laboratory results: PubChem BioAssay AID1963842 (Molecular Pharmacology Branch, DTP, NCI, 2024)
pIC50: −log10 of the molar value.

Tested on: 677734-321-R-J1-PDC complex spheroid viability
Assay: Anticancer human tumor 677734-321-R-J1-PDC patient-derived soft tissue sarcoma cell line growth inhibition [POLQ]
Settings: for pIC50: curve of first compound; for viability, T/C: stronger effect = lower value
Description: Multicellular complex tumor spheroid response to Polymerase (POL) inhibitors (novobiocin, ART-558, RP6685) in combination with a variety of drugs and investigational agents in selected tumor cell lines
The POL inhibitors (novobiocin, ART-558, and RP6685) were evaluated both individually and in combination with standard of care and investigational anticancer small molecules within a complex spheroid model of solid tumors. . Complex spheroids include a stromal component modeled by human endothelial cells (HUVEC) and fibroblasts modeled by human mesenchymal stem cells (MSCs). The concentration ranges selected for each drug and investigational agent were based upon clinically achievable concentrations if the clinical Cmax of the agent was known.
Compounds. The drugs and investigational agents: novobiocin (NSC847541), ART-558 (NSC835418), RP-6685 (NSC848927), peposertib (NSC802822), ceralasertib (NSC780249), elimusertib (NSC800525), camonsertib (NSC841442), AZD-1390 (NSC803789), olaparib (NSC753686), talazoparib (NSC767125), rucaparib (NSC756644), sotorasib (NSC818433), MRTX-1133 (NSC836407), SN-38 (NSC673596), topotecan (NSC609699), epotoside (NSC141540), doxorubicin (NSC123127), gemcitabine (NSC613327), 5-fluorouracil (NSC19893), paclitaxel (NSC125973), vemurafenib (NSC761431), MSA-2 (NSC828583), SN-011 (NSC837082), adavosertib (NSC754352), prexasertib (NSC758257), carboplatin (NSC241240) and oxaliplatin (NSC266046), were obtained from the National Cancer Institute (NCI) Developmental Therapeutics Program Chemical Repository (21). The FDA-approved anticancer drug set is available from the Developmental Therapeutics Program at https://dtp.cancer.gov/organization/dscb/obtaining/. […] The stock solutions were prepared in dimethyl sulfoxide (DMSO, Sigma-Aldrich, St. Louis, MO, cat. D2650), except for the platinum compounds which were prepared in saline (Quality Biological, Gaithersburg, MD, cat. 114-055-101), at 800-fold the tested concentration and stored at -70 degrees C prior to their use. All drugs and investigational agents were tested over a range starting from a high concentration at or near the clinical Cmax and decreasing in half-log increments. If the clinical Cmax for an agent had not been determined, the highest concentration tested was 10 microM, except for SN-38, which was tested at a high concentration of 1 microM.
Cell Culture. All cells were maintained in an incubator at 37 degrees C and 5% CO2 with 95% humidity. The PDC lines were cultured according to standard operating procedures established by the NCI PDMR (https://pdmr.cancer.gov). Table 3 of the manuscript, lists the cell lines along with the number of the three cell types plated to form the mct-spheroids and media for tumor cell growth. After thawing, all PDC lines, except 997537-175-T-J1-PDC and 415267-285-R-J2-PDC, were cultured in Matrigel-coated flasks prepared with a working solution of 1X Ham's F-12 nutrient mix, without supplementation (Thermo Fisher Scientific, cat. 11765054), 100 U/mL penicillin-streptomycin (Thermo Fisher Scientific, cat. 15140122), and 2.5% Matrigel (Corning Inc., Corning, NY, cat. 354248) for the first three passages. The two PDC lines 997537-175-T-J1-PDC and 415267-285-R-J2-PDC were cultured on uncoated flasks. The 857933-349-R-J2-PDC line was cultured in 6C/Colon 1B media containing advanced DMEM/F-12 (Thermo Fisher Scientific, cat. 12634028), 10 mM HEPES (Thermo Fisher Scientific, cat. 15630080), 1X GlutaMAX supplement (Thermo Fisher Scientific, cat. 35050061), 0.1 mg/mL primocin (InvivoGen, San Diego, CA, cat. ant-pm-2), 10% defined fetal bovine serum, heat inactivated (HyClone Laboratories Inc., Logan, UT, cat. SH30070.03HI), 50% L-WRN conditioned media (ATCC, cat. CRL-3276), 1.25 mM N-Acetyl-L-cysteine (Sigma-Aldrich, cat. A9165), 10 mM nicotinamide (Sigma-Aldrich, cat. N0636), 1X B-27 supplement (Thermo Fisher Scientific, cat. 17504044), 1X N-2 supplement (Thermo Fisher Scientific, cat. […]

[1] = second compound 0.0316 µM, first compound 0.0316 µM
[2] = second compound 0.0316 µM, first compound 0.1 µM
[3] = second compound 0.1 µM, first compound 0.0316 µM
[4] = second compound 0.1 µM, first compound 0.1 µM
[5] = second compound 0.316 µM, first compound 0.0316 µM
[6] = second compound 0.316 µM, first compound 0.1 µM
[7] = second compound 1 µM, first compound 0.0316 µM
[8] = second compound 1 µM, first compound 0.1 µM
[9] = second compound 3.16 µM, first compound 0.0316 µM
[10] = second compound 3.16 µM, first compound 0.1 µM
[11] = second compound 10 µM, first compound 0.0316 µM
[12] = second compound 10 µM, first compound 0.1 µM
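Also: spheroids exposed to compounds for one week.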
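For viability, T/C in this document: 100% = vehicle DMSO treated spheroids.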

COc1ccc([C@@H](O)c2cc(-c3ncnc4cc(N5CCOCC5)ccc34)c(F)cc2Cl)nn1 + COC1C(OC(N)=O)C(O)C(Oc2ccc3c(O)c(NC(=O)c4ccc(O)c(CC=C(C)C)c4)c(=O)oc3c2C)OC1(C)C
pIC50 (second compound 0.0316 µM): < 5.00
pIC50 (second compound 0.1 µM): 5.01
pIC50 (second compound 0.316 µM): 5.02
pIC50 (second compound 1 µM): < 5.00
pIC50 (second compound 3.16 µM): < 5.00
pIC50 (second compound 10 µM): < 5.00
viability, T/C [1]: 106%
viability, T/C [2]: 112%
viability, T/C (second compound 0.0316 µM, first compound 0.316 µM): 99.7%
viability, T/C (second compound 0.0316 µM, first compound 1 µM): 105%
viability, T/C (second compound 0.0316 µM, first compound 3.16 µM): 82.1%
viability, T/C (second compound 0.0316 µM, first compound 10 µM): 56.9%
viability, T/C [3]: 112%
viability, T/C [4]: 107%
viability, T/C (second compound 0.1 µM, first compound 0.316 µM): 100%
viability, T/C (second compound 0.1 µM, first compound 1 µM): 98.2%
viability, T/C (second compound 0.1 µM, first compound 3.16 µM): 83.8%
viability, T/C (second compound 0.1 µM, first compound 10 µM): 48.8%
viability, T/C [5]: 110%
viability, T/C [6]: 104%
viability, T/C (second compound 0.316 µM, first compound 0.316 µM): 104%
viability, T/C (second compound 0.316 µM, first compound 1 µM): 98.4%
viability, T/C (second compound 0.316 µM, first compound 3.16 µM): 82.5%
viability, T/C (second compound 0.316 µM, first compound 10 µM): 48.6%
viability, T/C [7]: 111%
viability, T/C [8]: 102%
viability, T/C (second compound 1 µM, first compound 0.316 µM): 97.3%
viability, T/C (second compound 1 µM, first compound 1 µM): 100%
viability, T/C (second compound 1 µM, first compound 3.16 µM): 79.4%
viability, T/C (second compound 1 µM, first compound 10 µM): 52.5%
viability, T/C [9]: 107%
viability, T/C [10]: 106%
viability, T/C (second compound 3.16 µM, first compound 0.316 µM): 106%
viability, T/C (second compound 3.16 µM, first compound 1 µM): 93.1%
viability, T/C (second compound 3.16 µM, first compound 3.16 µM): 79.5%
viability, T/C (second compound 3.16 µM, first compound 10 µM): 56.1%
viability, T/C [11]: 111%
viability, T/C [12]: 105%
viability, T/C (second compound 10 µM, first compound 0.316 µM): 104%
viability, T/C (second compound 10 µM, first compound 1 µM): 108%
viability, T/C (second compound 10 µM, first compound 3.16 µM): 85.1%
viability, T/C (second compound 10 µM, first compound 10 µM): 50.9%

Cn1ncnc1[C@H]1c2n[nH]c(=O)c3cc(F)cc(c23)N[C@@H]1c1ccc(F)cc1 + COC1C(OC(N)=O)C(O)C(Oc2ccc3c(O)c(NC(=O)c4ccc(O)c(CC=C(C)C)c4)c(=O)oc3c2C)OC1(C)C
pIC50 (second compound 0.0316 µM): < 7.00
pIC50 (second compound 0.1 µM): < 7.00
pIC50 (second compound 0.316 µM): < 7.00
pIC50 (second compound 1 µM): < 7.00
pIC50 (second compound 3.16 µM): < 7.00
pIC50 (second compound 10 µM): < 7.00
viability, T/C (second compound 0.0316 µM, first compound 0.000316 µM): 101%
viability, T/C (second compound 0.0316 µM, first compound 0.001 µM): 103%
viability, T/C (second compound 0.0316 µM, first compound 0.00316 µM): 99.7%
viability, T/C (second compound 0.0316 µM, first compound 0.01 µM): 101%
viability, T/C [1]: 98.8%
viability, T/C [2]: 85.7%
viability, T/C (second compound 0.1 µM, first compound 0.000316 µM): 97.6%
viability, T/C (second compound 0.1 µM, first compound 0.001 µM): 101%
viability, T/C (second compound 0.1 µM, first compound 0.00316 µM): 106%
viability, T/C (second compound 0.1 µM, first compound 0.01 µM): 101%
viability, T/C [3]: 98.5%
viability, T/C [4]: 95.2%
viability, T/C (second compound 0.316 µM, first compound 0.000316 µM): 106%
viability, T/C (second compound 0.316 µM, first compound 0.001 µM): 97.8%
viability, T/C (second compound 0.316 µM, first compound 0.00316 µM): 98.5%
viability, T/C (second compound 0.316 µM, first compound 0.01 µM): 104%
viability, T/C [5]: 97.6%
viability, T/C [6]: 93.4%
viability, T/C (second compound 1 µM, first compound 0.000316 µM): 109%
viability, T/C (second compound 1 µM, first compound 0.001 µM): 102%
viability, T/C (second compound 1 µM, first compound 0.00316 µM): 103%
viability, T/C (second compound 1 µM, first compound 0.01 µM): 104%
viability, T/C [7]: 96.3%
viability, T/C [8]: 92.5%
viability, T/C (second compound 3.16 µM, first compound 0.000316 µM): 108%
viability, T/C (second compound 3.16 µM, first compound 0.001 µM): 94.7%
viability, T/C (second compound 3.16 µM, first compound 0.00316 µM): 103%
viability, T/C (second compound 3.16 µM, first compound 0.01 µM): 100%
viability, T/C [9]: 106%
viability, T/C [10]: 94.4%
viability, T/C (second compound 10 µM, first compound 0.000316 µM): 103%
viability, T/C (second compound 10 µM, first compound 0.001 µM): 100%
viability, T/C (second compound 10 µM, first compound 0.00316 µM): 106%
viability, T/C (second compound 10 µM, first compound 0.01 µM): 103%
viability, T/C [11]: 99.4%
viability, T/C [12]: 93.3%
